In BindingDB's records for PubMed 8510008 (Eli Lilly, 1993):

Legend:
[1] = target: 5-hydroxytryptamine receptor 2A (Rattus norvegicus, UniProt P14842)
[2] = target: T1, 5-hydroxytryptamine receptor 2C (Homo sapiens, UniProt P28335)
T1 sequence (P28335 whole entry): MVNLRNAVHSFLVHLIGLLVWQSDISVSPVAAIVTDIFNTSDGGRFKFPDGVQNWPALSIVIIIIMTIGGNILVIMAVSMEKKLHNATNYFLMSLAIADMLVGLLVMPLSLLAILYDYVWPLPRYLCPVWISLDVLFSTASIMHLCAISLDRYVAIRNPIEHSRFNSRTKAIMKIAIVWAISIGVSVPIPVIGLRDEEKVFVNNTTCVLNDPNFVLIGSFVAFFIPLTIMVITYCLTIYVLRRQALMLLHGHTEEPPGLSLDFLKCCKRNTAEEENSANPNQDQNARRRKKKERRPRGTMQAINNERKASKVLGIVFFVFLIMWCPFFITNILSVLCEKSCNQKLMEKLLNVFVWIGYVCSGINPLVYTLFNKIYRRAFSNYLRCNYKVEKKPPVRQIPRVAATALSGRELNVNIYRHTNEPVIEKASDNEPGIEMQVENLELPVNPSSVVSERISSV

[3] = target: 5-hydroxytryptamine receptor 2A (Sus scrofa, UniProt P50129)
Sequence of 5-hydroxytryptamine receptor 2A (Sus scrofa, UniProt P50129) (P50129 whole entry): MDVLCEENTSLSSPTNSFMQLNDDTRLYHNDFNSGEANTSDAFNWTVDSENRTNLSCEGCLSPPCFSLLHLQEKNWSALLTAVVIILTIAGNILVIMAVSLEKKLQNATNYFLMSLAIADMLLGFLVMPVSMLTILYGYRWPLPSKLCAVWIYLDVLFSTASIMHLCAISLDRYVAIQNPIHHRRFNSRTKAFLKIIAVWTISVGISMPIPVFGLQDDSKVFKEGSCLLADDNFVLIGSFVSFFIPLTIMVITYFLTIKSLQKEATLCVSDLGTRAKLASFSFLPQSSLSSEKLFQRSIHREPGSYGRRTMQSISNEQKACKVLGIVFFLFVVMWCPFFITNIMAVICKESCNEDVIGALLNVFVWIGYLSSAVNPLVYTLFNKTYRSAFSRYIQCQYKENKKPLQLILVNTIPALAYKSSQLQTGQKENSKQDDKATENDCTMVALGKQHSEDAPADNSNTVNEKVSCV

[4] = target: 5-hydroxytryptamine receptor 2A (Macaca mulatta, UniProt P50128)
Sequence of 5-hydroxytryptamine receptor 2A (Macaca mulatta, UniProt P50128) (P50128 whole entry): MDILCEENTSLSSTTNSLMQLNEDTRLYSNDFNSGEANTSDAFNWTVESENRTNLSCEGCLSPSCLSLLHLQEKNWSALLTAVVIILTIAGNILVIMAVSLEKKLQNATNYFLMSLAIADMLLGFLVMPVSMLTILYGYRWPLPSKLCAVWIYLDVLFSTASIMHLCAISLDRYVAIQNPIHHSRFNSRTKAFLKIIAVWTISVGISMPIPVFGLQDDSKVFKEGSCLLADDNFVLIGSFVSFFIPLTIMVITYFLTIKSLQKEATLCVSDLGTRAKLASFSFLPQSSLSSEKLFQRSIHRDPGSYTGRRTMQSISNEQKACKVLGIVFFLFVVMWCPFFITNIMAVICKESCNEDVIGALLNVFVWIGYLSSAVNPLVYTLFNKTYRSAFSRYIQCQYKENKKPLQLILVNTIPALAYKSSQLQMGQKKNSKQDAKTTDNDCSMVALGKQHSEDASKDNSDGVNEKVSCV

Sequence of 5-hydroxytryptamine receptor 2A (Rattus norvegicus, UniProt P14842) (P14842 whole entry): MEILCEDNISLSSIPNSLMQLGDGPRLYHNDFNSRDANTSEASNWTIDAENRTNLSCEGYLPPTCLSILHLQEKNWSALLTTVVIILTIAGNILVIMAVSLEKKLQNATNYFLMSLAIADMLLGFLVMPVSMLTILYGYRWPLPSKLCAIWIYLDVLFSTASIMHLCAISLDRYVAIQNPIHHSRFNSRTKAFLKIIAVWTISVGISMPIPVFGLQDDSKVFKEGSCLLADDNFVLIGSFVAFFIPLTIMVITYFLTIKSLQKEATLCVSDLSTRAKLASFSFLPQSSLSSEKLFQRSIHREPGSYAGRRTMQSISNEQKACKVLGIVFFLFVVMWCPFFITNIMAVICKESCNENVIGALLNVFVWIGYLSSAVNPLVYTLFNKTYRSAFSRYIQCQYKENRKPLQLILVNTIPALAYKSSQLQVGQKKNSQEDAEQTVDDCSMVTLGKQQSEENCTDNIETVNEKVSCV

Row | Compound | Ki [1] [µM] | Ki [2] [µM] | Ki [3] [µM] | Ki [4] [µM]
1 | NCCc1c[nH]c2ccc(Br)cc12 | 3.24 | 1.52 | – | –
2 | CC(O)C(C)OC(=O)[C@@H]1C[C@@H]2c3cccc4c3c(cn4C)C[C@H]2N(C)C1 (stereo partly specified) [1,6-Dimethylergoline-8-carboxylic acid 2-hydroxy-1-methylpropyl ester] | 0.0093 | – | 0.0572 | 0.0568
3 | COc1ccc2c(c1)c(CCN)cn2C(C)C [1-Isopropyl-5-Methoxytryptamine] | 3.56 | – | 7.29 | –
4 | Cc1ccc2c(c1)c(CCN)cn2C(C)C [1-Isopropyl-5-Methyltryptamine] | 4.68 | > 10 | – | –
5 | CC(C)n1cc(CCN)c2ccccc21 [1-Isopropyltryptamine] | 3.86 | 7.03 | 5.72 | –
6 | NCCc1c[nH]c2ccccc12 [1H-indole-3-ethanamine] | > 10 | 3 | 3.39 | –
7 | CC(C)n1cc(CCN)c2cc(Br)ccc21 [5-Br-T, 1-Isopropyl] | 3.44 | 6.24 | – | –
8 | Cc1ccc2[nH]cc(CCN)c2c1 [5-Methyl-tryptamine, 10] | 6.15 | 3.22 | – | –
9 | CC(CO)NC(=O)C1C=C2c3cccc4[nH]cc(c34)CC2N(C)C1 (stereo unspecified) [CAS_60-79-7] | 0.0464 | 0.0311 | 0.0038 | 0.0034
10 | CC(O)C(C)OC(=O)C1CC2c3cccc4c3c(cn4C(C)C)CC2N(C)C1 (stereo unspecified) [CAS_60634-51-7] | 0.0072 | 0.0306 | 0.04 | 0.0331
11 | CC(O)C(C)OC(=O)C1CC2c3cccc4[nH]cc(c34)CC2N(C)C1 (stereo unspecified) [LY86057] | 0.0559 | 0.0033 | 0.0046 | 0.0032
12 | CN1C[C@H](C(=O)NC2CCCCC2)C[C@@H]2c3cccc4[nH]cc(c34)C[C@H]21 [LY-193525] | 0.0416 | – | 0.0036 | 0.0021
13 | CC(C)Cn1cc2c3c(cccc31)[C@H]1C[C@@H](C(=O)OC(C)C(C)O)CN(C)[C@@H]1C2 (stereo partly specified) [LY-197541] | 0.242 | – | 0.148 | 0.153
14 | COC1CCC(OC(=O)[C@@H]2C[C@@H]3c4cccc5[nH]cc(c45)C[C@H]3N(C)C2)CC1 (stereo partly specified) [LY-254239] | 0.042 | – | – | –
15 | CN1C[C@@H](NS(=O)(=O)N(C)C)C[C@@H]2c3cccc4c3c(cn4C)C[C@H]21 [MESULERGINE] | – | – | 0.0542 | 0.0449
16 | CN1C[C@H](CNC(=O)OCc2ccccc2)C[C@@H]2c3cccc4c3c(cn4C)C[C@H]21 [METERGOLINE] | – | – | 0.00037 | 0.00082
17 | CN1C[C@H](C(=O)N[C@@H]2CCC[C@@H]2O)C[C@@H]2c3cccc4[nH]cc(c34)C[C@H]21 [N-[(1R,2S)-2-Hydroxycyclopentyl]-6-methylergoline-8-beta-carboxamide] | 0.0644 | – | – | –
18 | COC1CCC(OC(=O)C2CC3c4cccc5c4c(cn5C(C)C)CC3N(C)C2)CC1 (stereo unspecified) [NSC_60262] | 0.0109 | – | – | –
19 | CC(C)n1cc2c3c(cccc31)C1CC(C(=O)NC3CCCCC3)CN(C)C1C2 (stereo unspecified) [NSC_60740] | 0.0069 | – | 0.0307 | 0.0265
20 | CC(C)n1cc2c3c(cccc31)C1CC(C(=O)NC3CCCC3O)CN(C)C1C2 (stereo unspecified) [NSC_132049] | 0.0058 | 0.0277 | – | –
21 | COc1ccc2[nH]cc(CCN)c2c1 [tryptamine, 5-Methoxy] | – | 0.943 | 0.923 | –
